Literature values, collected in PMC4007625, “A phase I study of AST1306, a novel irreversible EGFR and HER2 kinase inhibitor, in patients with advanced solid tumors” (Journal of Hematology & Oncology, 2014).

Test system: advanced/metastatic gastric cancer
Design: method as in PMID 21415234
Conditions: single agent, advanced/metastatic gastric cancer patients; cited from earlier work

For `CS(=O)(=O)CCNCc1ccc(-c2ccc3ncnc(Nc4ccc(OCc5cccc(F)c5)c(Cl)c4)c3c2)o1` [lapatinib], the response rate is listed as 9%.
